# Positions of bridges follow the written chain, without caps; N, C: chain ends. Non-standard residues stand in square brackets, D forms with d. Residues, ends and D or L forms follow the SMILES beside them. *: point of attachment. Ileψ(thiazoline)Cys = CC[C@H](C)[C@H](N)C1=N[C@H](C(=O)*)CS1; dOrn = NCCC[C@@H](N)C(=O)O
# Organism: Rattus norvegicus
# Experiment: DrugMatrix - Regimen: Daily Repeat
# Format: toxicity, organism-based, Sprague-Dawley
# Design: regimen Daily Repeat, gender Male, age 6-8 weeks
# Conditions: in vivo, sc, route subcutaneous, […]; for ABSOLUTE BASOPHIL / ABSOLUTE EOSINOPHIL / ABSOLUTE LYMPHOCYTE / ABSOLUTE MONOCYTE / ABSOLUTE SEGMENTED NEUTROPHIL / BASOPHIL / EOSINOPHIL / ERYTHROCYTE COUNT / HEMATOCRIT / HEMOGLOBIN / LEUKOCYTE COUNT / LYMPHOCYTE / MEAN CORPUSCULAR HEMOGLOBIN / MEAN CORPUSCULAR HEMOGLOBIN CONCENTRATION / MEAN CORPUSCULAR VOLUME / MONOCYTE / NEUTROPHIL / NUCLEATED RED BLOOD CELLS / PLATELET COUNT: tissue Blood; for ALANINE AMINOTRANSFERASE / ALBUMIN / ALKALINE PHOSPHATASE / ASPARTATE AMINOTRANSFERASE / BLOOD UREA NITROGEN / CARBON DIOXIDE / CHLORIDE / CHOLESTEROL / CREATINE PHOSPHOKINASE / CREATININE / GLUCOSE / LACTATE DEHYDROGENASE / LIPASE / PHOSPHORUS / POTASSIUM / SODIUM / TOTAL BILIRUBIN / TOTAL PROTEIN / URIC ACID: tissue Plasma
# [1] = 380 mg/kg, 72 h, dose level High, time 3 day
# [2] = 380 mg/kg, 120 h, dose level High, time 5 day
# [3] = 72 h, dose 7.6 mg/Kg, dose level Low, time 3 day
# [4] = 120 h, dose 7.6 mg/Kg, dose level Low, time 5 day
smiles,measurement,setting,value
CC[C@H](C)[C@H](N)C1=N[C@H](C(=O)N[C@@H](CC(C)C)C(=O)N[C@H](CCC(=O)O)C(=O)N[C@H](C(=O)N[C@H]2CCCCNC(=O)[C@H](CC(N)=O)NC(=O)[C@@H](CC(=O)O)NC(=O)[C@H](Cc3cnc[nH]3)NC(=O)[C@@H](Cc3ccccc3)NC(=O)[C@H]([C@@H](C)CC)NC(=O)[C@@H](CCCN)NC2=O)[C@@H](C)CC)CS1 [BACITRACIN] ({Ileψ(thiazoline)Cys}-L[dE]IK[dOrn]I[dF]H[dD]N; lactam 4-C),ABSOLUTE BASOPHIL,[1],0 CELLS/uL
same,ABSOLUTE EOSINOPHIL,[1],42 CELLS/uL
same,ABSOLUTE LYMPHOCYTE,[1],8742.33 CELLS/uL
same,ABSOLUTE MONOCYTE,[1],132.67 CELLS/uL
same,ABSOLUTE SEGMENTED NEUTROPHIL,[1],3249.67 CELLS/uL
same,BASOPHIL,[1],0%
same,EOSINOPHIL,[1],0.33%
same,ERYTHROCYTE COUNT,[1],4.93 x10E6/uL
same,HEMATOCRIT,[1],31.17%
same,HEMOGLOBIN,[1],12.4 G/DL
same,LEUKOCYTE COUNT,[1],12.17 x10E3/uL
same,LYMPHOCYTE,[1],71.67%
same,MEAN CORPUSCULAR HEMOGLOBIN,[1],25.1 pg
same,MEAN CORPUSCULAR HEMOGLOBIN CONCENTRATION,[1],39.8 G/DL
same,MEAN CORPUSCULAR VOLUME,[1],63.1 fL
same,MONOCYTE,[1],1%
same,NEUTROPHIL,[1],27%
same,NUCLEATED RED BLOOD CELLS,[1],0.67 /100WBC
same,PLATELET COUNT,[1],1256.33 x10E3/uL
same,ALANINE AMINOTRANSFERASE,[1],168 u/L
same,ALBUMIN,[1],3.13 G/DL
same,ALKALINE PHOSPHATASE,[1],252 u/L
same,ASPARTATE AMINOTRANSFERASE,[1],595.67 u/L
same,BLOOD UREA NITROGEN,[1],127.67 mg/dL
same,CARBON DIOXIDE,[1],23.33 mmol/L
same,CHLORIDE,[1],90.67 MEQ/L
same,CHOLESTEROL,[1],114.33 mg/dL
same,CREATINE PHOSPHOKINASE,[1],288.33 u/L
same,CREATININE,[1],4.29 mg/dL
same,GLUCOSE,[1],146.67 mg/dL
same,LACTATE DEHYDROGENASE,[1],577.67 u/L
same,LIPASE,[1],8.67 u/L
same,PHOSPHORUS,[1],15.2 mg/dL
same,POTASSIUM,[1],7.31 MEQ/L
same,SODIUM,[1],136.43 MEQ/L
same,TOTAL BILIRUBIN,[1],0.37 mg/dL
same,TOTAL PROTEIN,[1],5.8 G/DL
same,URIC ACID,[1],1.37 mg/dL
same,ABSOLUTE BASOPHIL,[2],0 CELLS/uL
same,ABSOLUTE EOSINOPHIL,[2],0 CELLS/uL
same,ABSOLUTE LYMPHOCYTE,[2],16005 CELLS/uL
same,ABSOLUTE MONOCYTE,[2],832 CELLS/uL
same,ABSOLUTE SEGMENTED NEUTROPHIL,[2],5863 CELLS/uL
same,BASOPHIL,[2],0%
same,EOSINOPHIL,[2],0%
same,ERYTHROCYTE COUNT,[2],5.69 x10E6/uL
same,HEMATOCRIT,[2],34%
same,HEMOGLOBIN,[2],13.77 G/DL
same,LEUKOCYTE COUNT,[2],22.7 x10E3/uL
same,LYMPHOCYTE,[2],70.67%
same,MEAN CORPUSCULAR HEMOGLOBIN,[2],24.2 pg
same,MEAN CORPUSCULAR HEMOGLOBIN CONCENTRATION,[2],40.47 G/DL
same,MEAN CORPUSCULAR VOLUME,[2],59.77 fL
same,MONOCYTE,[2],3.67%
same,NEUTROPHIL,[2],25.67%
same,NUCLEATED RED BLOOD CELLS,[2],0.33 /100WBC
same,PLATELET COUNT,[2],1853.67 x10E3/uL
same,ALANINE AMINOTRANSFERASE,[2],104 u/L
same,ALBUMIN,[2],3.33 G/DL
same,ALKALINE PHOSPHATASE,[2],228.33 u/L
same,ASPARTATE AMINOTRANSFERASE,[2],305.67 u/L
same,BLOOD UREA NITROGEN,[2],48 mg/dL
same,CARBON DIOXIDE,[2],25.33 mmol/L
same,CHLORIDE,[2],96.33 MEQ/L
same,CHOLESTEROL,[2],99.67 mg/dL
same,CREATINE PHOSPHOKINASE,[2],335 u/L
same,CREATININE,[2],0.95 mg/dL
same,GLUCOSE,[2],137.67 mg/dL
same,LACTATE DEHYDROGENASE,[2],484.67 u/L
same,LIPASE,[2],9 u/L
same,PHOSPHORUS,[2],11.2 mg/dL
same,POTASSIUM,[2],6.3 MEQ/L
same,SODIUM,[2],133.53 MEQ/L
same,TOTAL BILIRUBIN,[2],0.17 mg/dL
same,TOTAL PROTEIN,[2],6.1 G/DL
same,URIC ACID,[2],2.73 mg/dL
same,ABSOLUTE BASOPHIL,[3],0 CELLS/uL
same,ABSOLUTE EOSINOPHIL,[3],0 CELLS/uL
same,ABSOLUTE LYMPHOCYTE,[3],8685.33 CELLS/uL
same,ABSOLUTE MONOCYTE,[3],135 CELLS/uL
same,ABSOLUTE SEGMENTED NEUTROPHIL,[3],1146.33 CELLS/uL
same,BASOPHIL,[3],0%
same,EOSINOPHIL,[3],0%
same,ERYTHROCYTE COUNT,[3],6.24 x10E6/uL
same,HEMATOCRIT,[3],39.37%
same,HEMOGLOBIN,[3],15.53 G/DL
same,LEUKOCYTE COUNT,[3],9.97 x10E3/uL
same,LYMPHOCYTE,[3],87.33%
same,MEAN CORPUSCULAR HEMOGLOBIN,[3],24.9 pg
same,MEAN CORPUSCULAR HEMOGLOBIN CONCENTRATION,[3],39.47 G/DL
same,MEAN CORPUSCULAR VOLUME,[3],63.13 fL
same,MONOCYTE,[3],1.33%
same,NEUTROPHIL,[3],11.33%
same,NUCLEATED RED BLOOD CELLS,[3],0 /100WBC
same,PLATELET COUNT,[3],1341.67 x10E3/uL
same,ALANINE AMINOTRANSFERASE,[3],22.67 u/L
same,ALBUMIN,[3],4.77 G/DL
same,ALKALINE PHOSPHATASE,[3],372.67 u/L
same,ASPARTATE AMINOTRANSFERASE,[3],95 u/L
same,BLOOD UREA NITROGEN,[3],17.33 mg/dL
same,CARBON DIOXIDE,[3],22 mmol/L
same,CHLORIDE,[3],105.67 MEQ/L
same,CHOLESTEROL,[3],79.33 mg/dL
same,CREATINE PHOSPHOKINASE,[3],677 u/L
same,CREATININE,[3],0.21 mg/dL
same,GLUCOSE,[3],182 mg/dL
same,LACTATE DEHYDROGENASE,[3],728.67 u/L
same,LIPASE,[3],9 u/L
same,PHOSPHORUS,[3],14.07 mg/dL
same,POTASSIUM,[3],6.5 MEQ/L
same,SODIUM,[3],151.33 MEQ/L
same,TOTAL BILIRUBIN,[3],0.2 mg/dL
same,TOTAL PROTEIN,[3],6.97 G/DL
same,URIC ACID,[3],2.53 mg/dL
same,ABSOLUTE BASOPHIL,[4],0 CELLS/uL
same,ABSOLUTE EOSINOPHIL,[4],40 CELLS/uL
same,ABSOLUTE LYMPHOCYTE,[4],10682 CELLS/uL
same,ABSOLUTE MONOCYTE,[4],80 CELLS/uL
same,ABSOLUTE SEGMENTED NEUTROPHIL,[4],864.67 CELLS/uL
same,BASOPHIL,[4],0%
same,EOSINOPHIL,[4],0.33%
same,ERYTHROCYTE COUNT,[4],4.88 x10E6/uL
same,HEMATOCRIT,[4],31.97%
same,HEMOGLOBIN,[4],12.4 G/DL
same,LEUKOCYTE COUNT,[4],11.67 x10E3/uL
same,LYMPHOCYTE,[4],90.67%
same,MEAN CORPUSCULAR HEMOGLOBIN,[4],25.37 pg
same,MEAN CORPUSCULAR HEMOGLOBIN CONCENTRATION,[4],38.97 G/DL
same,MEAN CORPUSCULAR VOLUME,[4],65.07 fL
same,MONOCYTE,[4],0.67%
same,NEUTROPHIL,[4],8.33%
same,NUCLEATED RED BLOOD CELLS,[4],0.67 /100WBC
same,PLATELET COUNT,[4],938.67 x10E3/uL
same,ALANINE AMINOTRANSFERASE,[4],50 u/L
same,ALBUMIN,[4],4.2 G/DL
same,ALKALINE PHOSPHATASE,[4],312.33 u/L
same,ASPARTATE AMINOTRANSFERASE,[4],77 u/L
same,BLOOD UREA NITROGEN,[4],17.33 mg/dL
same,CARBON DIOXIDE,[4],27 mmol/L
same,CHLORIDE,[4],103.67 MEQ/L
same,CHOLESTEROL,[4],66 mg/dL
same,CREATINE PHOSPHOKINASE,[4],146.67 u/L
same,CREATININE,[4],0.2 mg/dL
same,GLUCOSE,[4],146.33 mg/dL
same,LACTATE DEHYDROGENASE,[4],121 u/L
same,LIPASE,[4],8.67 u/L
same,PHOSPHORUS,[4],12.63 mg/dL
same,POTASSIUM,[4],6.86 MEQ/L
same,SODIUM,[4],148.7 MEQ/L
same,TOTAL BILIRUBIN,[4],0.2 mg/dL
same,TOTAL PROTEIN,[4],6 G/DL
same,URIC ACID,[4],1.4 mg/dL

# From ChEMBL document CHEMBL3885881, “DrugMatrix”
